The values that follow come from ChEMBL document CHEMBL3045476, “Prediction of antiproliferative activity of some flavone derivatives: QSAR study” (2009).

The assay has as its system SK-HEP1. The experiment in a line: Antiproliferative activity against Homo sapiens (human) SKHEP1 cells. The assay is classed as functional. The settings on record: SK-HEP1, read-out: pGI50 (converted).
Turning to `CO/N=C(/COc1ccc2oc(-c3ccccc3)cc(=O)c2c1)c1ccc(OC)cc1`, the GI50 was 2 µM.
To `CO/N=C(\C)COc1ccc2c(=O)c(-c3ccccc3)coc2c1` belongs 6.39 µM.
In the case of `O=c1c(OC/C(=N/O)c2ccccc2)c(-c2ccccc2)oc2ccccc12`, the GI50 was 7.21 µM.
As to `O=c1c(OC/C(=N/O)c2ccc(F)cc2)c(-c2ccccc2)oc2ccccc12`, the GI50 was 6.9 µM.
As to `C/C(COc1c(-c2ccccc2)oc2ccccc2c1=O)=N\O`, the GI50 is 2.6 µM.
Then `CO/N=C(\C)COc1c(-c2ccccc2)oc2ccccc2c1=O`, with 9.2 µM.
Then `CO/N=C(\C)COc1ccc2c(=O)cc(-c3ccccc3)oc2c1`, with 2 µM.
Take `C/C(COc1ccc2oc(-c3ccccc3)cc(=O)c2c1)=N\O`: the GI50 was 1.9 µM.
Regarding `C/C(COc1ccc2c(=O)c(-c3ccccc3)coc2c1)=N\O`, the GI50 is 7.29 µM.
Then `O=c1cc(-c2ccccc2)oc2ccc(OC/C(=N/O)c3ccc(F)cc3)cc12`, with 2.8 µM; and `O=c1cc(-c2ccccc2)oc2cc(OC/C(=N/O)c3ccccc3)ccc12`, with 2 µM; and `CO/N=C(/COc1c(-c2ccccc2)oc2ccccc2c1=O)c1ccc(F)cc1`, with 13 µM.
As for `CO/N=C(/COc1c(-c2ccccc2)oc2ccccc2c1=O)c1ccc(OC)cc1`, the GI50 was 11 µM.
Then `CO/N=C(/COc1ccc2oc(-c3ccccc3)cc(=O)c2c1)c1ccc(F)cc1`, with 7.9 µM; and `O=c1cc(-c2ccccc2)oc2cc(OC/C(=N/O)c3ccc(F)cc3)ccc12`, with 2.3 µM.
To `CO/N=C(/COc1ccc2c(=O)c(-c3ccccc3)coc2c1)c1ccccc1` belongs 7.39 µM; to `COc1ccc(/C(COc2ccc3c(=O)cc(-c4ccccc4)oc3c2)=N\O)cc1`, 5.59 µM; to `O=c1c(-c2ccccc2)coc2cc(OC/C(=N/O)c3ccccc3)ccc12`, 6.39 µM.
Then `CO/N=C(/COc1c(-c2ccccc2)oc2ccccc2c1=O)c1ccccc1`, with 7.11 µM.
In the case of `CO/N=C(/COc1ccc2c(=O)cc(-c3ccccc3)oc2c1)c1ccccc1`, the GI50 was 2 µM.
Then `CO/N=C(/COc1ccc2c(=O)cc(-c3ccccc3)oc2c1)c1ccc(F)cc1`, with 3.3 µM; and `CO/N=C(/COc1ccc2c(=O)cc(-c3ccccc3)oc2c1)c1ccc(OC)cc1`, with 4.79 µM.
On to `CO/N=C(/COc1ccc2c(=O)c(-c3ccccc3)coc2c1)c1ccc(F)cc1`, for which the GI50 is 6.09 µM.
In the case of `CO/N=C(/COc1ccc2c(=O)c(-c3ccccc3)coc2c1)c1ccc(OC)cc1`, the GI50 is 5.29 µM.
In the case of `O=c1c(-c2ccccc2)coc2cc(OC/C(=N/O)c3ccc(F)cc3)ccc12`, the GI50 was 6.6 µM.
To `C/C(COc1ccc2c(=O)cc(-c3ccccc3)oc2c1)=N\O` belongs 2.8 µM; to `CO/N=C(/COc1ccc2oc(-c3ccccc3)cc(=O)c2c1)c1ccccc1`, 8.2 µM.
To `COc1ccc(/C(COc2ccc3c(=O)c(-c4ccccc4)coc3c2)=N\O)cc1` belongs 5.5 µM.
`COc1ccc(/C(COc2c(-c3ccccc3)oc3ccccc3c2=O)=N\O)cc1`: the GI50 was 2.7 µM.
